Measured values published in patent US10167272B2, “Muscarinic agonists” (Heptares Therapeutics Limited, priority 2015, dated 2019).
Like-named read-outs stand apart in the source and are kept apart here.

What was measured:
[1] = molecular target: T1, human muscarinic M4 receptor (Homo sapiens, UniProt P08173); experiment: Alphascreen Surefire phospho-ERK1/2 functional assay, M4; type: cell-based; settings: for Emax: CHO, read-out: % Emax cf. ACh (M4), CHO cells stably expressing human M4
T1 construct: expressed in transfected cells
T1 sequence (P08173 1-479): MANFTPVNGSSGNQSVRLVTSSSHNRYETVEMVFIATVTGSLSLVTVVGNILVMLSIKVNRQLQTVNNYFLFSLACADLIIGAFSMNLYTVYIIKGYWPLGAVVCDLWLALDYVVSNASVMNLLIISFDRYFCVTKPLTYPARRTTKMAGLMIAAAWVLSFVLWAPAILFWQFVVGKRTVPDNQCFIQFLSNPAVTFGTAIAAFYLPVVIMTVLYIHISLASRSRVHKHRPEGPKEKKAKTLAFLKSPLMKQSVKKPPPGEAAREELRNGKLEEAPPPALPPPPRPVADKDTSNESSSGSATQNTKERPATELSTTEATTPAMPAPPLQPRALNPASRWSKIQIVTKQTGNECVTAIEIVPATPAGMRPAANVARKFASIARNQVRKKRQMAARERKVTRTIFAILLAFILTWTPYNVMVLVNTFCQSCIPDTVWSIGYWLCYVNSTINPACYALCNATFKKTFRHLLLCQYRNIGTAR

[2] = molecular target: T2, human muscarinic M2 receptor (Homo sapiens, UniProt P08172); experiment: Alphascreen Surefire phospho-ERK1/2 functional assay, M2; type: cell-based; settings: for EC50: CHO cells stably expressing human M2, read-out: pEC50 M2 (converted); for Emax: CHO, read-out: % Emax cf. ACh (M2), CHO cells stably expressing human M2, relative to ACh
T2 sequence (P08172 1-466): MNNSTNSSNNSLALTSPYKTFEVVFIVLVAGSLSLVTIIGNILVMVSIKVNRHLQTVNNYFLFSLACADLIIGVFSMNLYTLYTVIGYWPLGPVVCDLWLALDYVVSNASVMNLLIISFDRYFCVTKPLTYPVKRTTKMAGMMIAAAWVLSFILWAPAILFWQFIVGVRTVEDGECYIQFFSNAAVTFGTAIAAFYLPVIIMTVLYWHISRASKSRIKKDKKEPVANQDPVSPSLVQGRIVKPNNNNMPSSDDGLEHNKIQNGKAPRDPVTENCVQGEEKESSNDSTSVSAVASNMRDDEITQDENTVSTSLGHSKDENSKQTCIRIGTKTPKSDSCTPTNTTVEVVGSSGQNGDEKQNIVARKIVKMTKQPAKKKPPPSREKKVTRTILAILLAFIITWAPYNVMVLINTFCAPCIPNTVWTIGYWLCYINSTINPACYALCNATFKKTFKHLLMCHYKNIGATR
Procedure: (§1) ERK1/2 phosphorylation is a downstream consequence of both Gq/11 and Gi/o protein coupled receptor activation, making it highly suitable for the assessment of M1, M3 (Gq/11 coupled) and M2, M4 receptors (Gi/o coupled), rather than using different assay formats for different receptor subtypes. CHO cells stably expressing the human muscarinic M1, M2, M3 or M4 receptor were plated (25K/well) onto 96-well tissue culture plates in MEM-alpha+10% dialysed FBS. Once adhered, cells were serum-starved overnight. Agonist stimulation was performed by the addition of 5 μL agonist to the cells for 5 min (37° C.). Media was removed and 50 μL of lysis buffer added. After 15 min, a 4 μL sample was transferred to 384-well plate and 7 μL of detection mixture added.

[3] = molecular target: T3, human muscarinic M3 receptor (Homo sapiens, UniProt P20309); experiment: Alphascreen Surefire phospho-ERK1/2 functional assay, M3; type: cell-based; settings: phospho-ERK1/2; for EC50: CHO cells stably expressing human M3, read-out: pEC50 M3 (converted); for Emax: CHO, read-out: % Emax cf. ACh (M3), CHO cells stably expressing human M3, relative to ACh
T3 construct: expressed in transfected cells
T3 sequence (P20309 whole entry): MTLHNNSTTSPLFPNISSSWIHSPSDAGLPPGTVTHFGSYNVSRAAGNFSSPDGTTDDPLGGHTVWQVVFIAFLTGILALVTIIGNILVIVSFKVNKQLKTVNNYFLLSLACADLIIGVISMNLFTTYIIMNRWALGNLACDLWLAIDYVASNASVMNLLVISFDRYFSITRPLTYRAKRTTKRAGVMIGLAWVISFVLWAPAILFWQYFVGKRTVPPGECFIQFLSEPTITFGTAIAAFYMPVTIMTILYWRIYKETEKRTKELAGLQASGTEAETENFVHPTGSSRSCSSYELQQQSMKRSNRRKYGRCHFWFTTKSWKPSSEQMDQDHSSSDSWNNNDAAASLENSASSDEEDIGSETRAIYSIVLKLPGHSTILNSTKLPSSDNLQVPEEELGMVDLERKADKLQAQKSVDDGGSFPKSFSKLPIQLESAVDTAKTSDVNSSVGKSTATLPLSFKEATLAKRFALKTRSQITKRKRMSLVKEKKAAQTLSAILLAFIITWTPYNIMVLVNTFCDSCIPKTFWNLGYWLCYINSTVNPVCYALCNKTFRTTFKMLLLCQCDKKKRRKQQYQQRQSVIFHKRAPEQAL
Procedure: as §1

[4] = molecular target: T4, human muscarinic M1 receptor (Homo sapiens, UniProt P11229); experiment: Alphascreen Surefire phospho-ERK1/2 functional assay, M1; type: cell-based; settings: phospho-ERK1/2; for EC50 / % Emax cf. ACh (M1): CHO cells stably expressing human M1; for EC50: read-out: pEC50 M1 (converted); for Emax: CHO, read-out: % Emax cf. ACh (M1), CHO cells stably expressing human M1; for Emax / % Emax cf. ACh (M1): relative to ACh
T4 sequence (P11229 1-460): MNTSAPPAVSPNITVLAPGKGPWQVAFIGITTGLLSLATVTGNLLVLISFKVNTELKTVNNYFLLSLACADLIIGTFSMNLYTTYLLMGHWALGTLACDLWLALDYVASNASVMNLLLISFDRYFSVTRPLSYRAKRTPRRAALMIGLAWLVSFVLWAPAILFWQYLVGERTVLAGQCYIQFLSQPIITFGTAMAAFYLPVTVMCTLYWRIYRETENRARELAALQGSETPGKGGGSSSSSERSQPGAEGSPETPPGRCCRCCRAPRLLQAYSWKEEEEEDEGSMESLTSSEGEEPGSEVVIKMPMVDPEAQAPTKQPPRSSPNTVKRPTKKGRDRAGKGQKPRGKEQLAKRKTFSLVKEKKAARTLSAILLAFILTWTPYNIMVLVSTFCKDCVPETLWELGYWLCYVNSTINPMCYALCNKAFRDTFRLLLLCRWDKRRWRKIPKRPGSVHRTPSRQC
How it was run: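 CHO cells stably expressing human M1, M2 or M3 receptor, serum-starved overnight, were stimulated with agonist for 5 min at 37 °C. Cells were then lysed and ERK1/2 phosphorylation detected by AlphaScreen SureFire.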

rats = experiment: d-amphetamine-induced hyperactivity in rats; type: in vivo, rat; settings: positive control dose, previously observed
Procedure: Effect of a Novel Test Compound and Xanomeline on d-Amphetamine-Induced Hyperactivity in Rats
The aim of the study is to examine the effect of a novel test compound on d-amphetamine induced hyperactivity in rats. Schizophrenia is a complex multifactorial disease that cannot be fully represented by a single experimental procedure. Antipsychotic-like behaviour was assessed in rats by the inhibition of hyperactivity (or hyperlocomotion) elicited by d-amphetamine. This procedure is sensitive to clinically relevant dopamine receptor antagonists and is therefore considered suitable for comparing muscarinic agonists that influence dopaminergic signalling. […] Statistical analysis typically involved three-way analysis of covariance or robust regression with treatment, day and rack as factors and activity during the 30 minutes prior to treatment as a covariate, followed by appropriate multiple comparison tests. A P value of <0.05 was considered statistically significant and is marked accordingly in all subsequent figures.

[5] = CHO cells stably expressing human M4, phospho-ERK1/2, read-out: pEC50 M4 (converted)
[6] = phospho-ERK1/2, relative to ACh

| Structure (SMILES) | EC50 [1, 5] [nM] | Emax [1, 6] [%] | EC50 [2] [nM] | Emax [2] [%] | EC50 [3] [nM] | Emax [3] [%] | EC50 [4] [nM] | Emax [4] [%] | EC50 ([1]; pEC50 M4) [nM] | % Emax cf. ACh (M4) ([1]; CHO cells stably expressing human M4, phospho-ERK1/2, relative to ACh) [%] | % Emax cf. ACh (M1) [4] [%] | % Emax cf. ACh (M1) ([4]; listed as 2-21 isomer 2) [%] | d-amphetamine induced hyperactivity (rats) |
| --- | --- | --- | --- | --- | --- | --- | --- | --- | --- | --- | --- | --- | --- |
| CCOC(=O)N1CCC2(CC(N3CCC(N(CCO)CC(F)(F)F)CC3)C2)C1 (single isomer, unassigned) [2-51 Isomer 2] | 20 | 89 | > 20000 | 18 | > 20000 | 22 | 316 | 84 |  |  |  |  |  |
| CCOC(=O)N1CCC2(CC(N3CCC(N(CCOC)CC(F)(F)F)CC3)C2)C1 (single isomer, unassigned) [2-52 Isomer 2] | 25.1 | 106 | > 20000 | 7 | > 20000 | 7 | 398 | 93 |  |  |  |  |  |
| CCOC(=O)N1CCC2(CC(N3CCC(N(CC(F)(F)F)C4COC4)CC3)C2)C1 (single isomer, unassigned) [2-54 Isomer 2] | 31.6 | 98 | > 20000 | 28 | > 20000 | 20 | 251 | 106 |  |  |  |  |  |
| CCOC(=O)N1CCC2(CC(N3CCC(N(CC)CCC#N)CC3)C2)C1 (single isomer, unassigned) [2-55 Isomer 2] | 25.1 | 65 | > 20000 | 15 | > 20000 | 5 | > 20000 | 161 |  |  |  |  |  |
| CCOC(=O)N1CCC2(CC(N3CCC(N(CC)OC)CC3)C2)C1 (single isomer, unassigned) [2-57 Isomer 2] | 39.8 | 107 | > 20000 | 11 | > 20000 | 23 | 1000 | 40 |  |  |  |  |  |
| CCOC(=O)N1CCC2(CC(N3CCC(N(Cc4ccccc4)CC(F)(F)F)CC3)C2)C1 (single isomer, unassigned) [2-59 Isomer 2] | 79.4 | 52 | > 20000 | 9 | > 20000 | 14 | > 20000 | 9 |  |  |  |  |  |
| CCOC(=O)N1CCC2(CC(N3CCC(N(CC)Cc4cnco4)CC3)C2)C1 (single isomer, unassigned) [2-60 Isomer 2] | 63.1 | 111 | > 20000 | 20 | > 20000 | 56 | > 20000 | 62 |  |  |  |  |  |
| CCOC(=O)N1CCC2(CC(N3CCC(N(CCF)Cc4cnco4)CC3)C2)C1 (single isomer, unassigned) [2-61 Isomer 2] |  | 101 | > 20000 | 52 | > 20000 | 65 | > 20000 | 21 | 39.8 |  |  |  |  |
| CCOC(=O)N1CCC2(CC(N3CCC(N(Cc4cnco4)CC(F)(F)F)CC3)C2)C1 (single isomer, unassigned) [2-62 Isomer 2] | 20 | 106 | > 20000 | 12 | > 20000 | 11 | 1000 | 85 |  |  |  |  |  |
| CCOC(=O)N1CCC2(CC(N3CCC(C(C)(C)N(CC)C(C)=O)CC3)C2)C1 (single isomer, unassigned) [2-64 Isomer 2] | 31.6 | 128 | > 20000 | 2 | > 20000 | 4 | 2510 | 46 |  |  |  |  |  |
| CCOC(=O)N1CCC2(CC(N3CCC(C(C)n4cccn4)CC3)C2)C1 (single isomer, unassigned) [2-65 Isomer 2a] | 200 |  | > 20000 | 15 | > 20000 | 15 | 1000 |  |  | 45 | 43 |  |  |
| CCOC(=O)N1CCC2(CC(N3CCC(OC(C)c4ccccc4)CC3)C2)C1 (single isomer, unassigned) [2-66 Isomer 2] | 39.8 | 76 | > 20000 | 17 | > 20000 | 8 | > 20000 | 59 |  |  |  |  |  |
| CCOC(=O)N1CCC2(CC(N3CCC(SCc4ccccc4)CC3)C2)C1 (single isomer, unassigned) [2-67 Isomer 2] | 31.6 | 55 | > 20000 | 2 | > 20000 | 2 | > 20000 | 19 |  |  |  |  |  |
| CCN(C(C)=O)C1CCN(C2CCC3(C2)CN(C(=O)OC)C3)CC1 (single isomer, unassigned) [3-2 Isomer 2] | 31.6 | 94 | > 20000 | 29 | > 20000 | 37 | 316 | 42 |  |  |  |  |  |
| CCOC(=O)N1CC2(CCC(N3CCC(N(CC)C(C)=O)CC3)C2)C1 (single isomer, unassigned) [3-3 Isomer 2] | 3.98 | 93 | > 20000 | 3 | > 20000 | 21 | > 20000 | 18 |  |  |  |  |  |
| CCOC(=O)N1CCC2(CC(N3CCC(N(CC4(C)CCC4)C(C)=O)CC3)C2)C1 (single isomer, unassigned) [Example 2-21 Isomer 2] | 158 |  | > 20000 | 18 | > 20000 | 22 | 63.1 |  |  |  |  | 89 |  |
| CCCCCCOc1nsnc1C1=CCCN(C)C1 [xanomeline] |  |  |  |  |  |  |  |  |  |  |  |  | significantly reduce |
